Source: patent publication US6727232B2, “Nucleoside peptide antibiotics of AA-896” (Wyeth Holdings Corporation, priority 2001, dated 2004)
Converted amounts (≈) assume the structure as drawn. Where two headings read alike, the source gives them in different places.

Tests used:
Test in all cases: Broth dilution MIC
Format in all cases: cell-based
P. aeruginosa GC 4532 = conditions: Pseudomonas aeruginosa, read-out: Antimicrobial Activity (MIC)
How it was run: (§1)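 Mueller-Hinton broth, serial compound dilutions, bacterial inoculum; 18 h, 35° C. MIC = lowest concentration with no growth.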

S. aureus GC 4536 = conditions: Staphylococcus aureus, read-out: Antimicrobial Activity (MIC)
How it was run: as §1

E. coli GC 4560 = conditions: Escherichia coli, read-out: Antimicrobial Activity (MIC)
How it was run: as §1

P. aeruginosa GC 2214 = conditions: Pseudomonas aeruginosa, read-out: Antimicrobial Activity (MIC)
How it was run: as §1

E. faecalis GC 2242 = conditions: Enterococcus faecalis, read-out: Antimicrobial Activity (MIC)
How it was run: as §1

S. aureus GC 1131 = conditions: Staphylococcus aureus, read-out: Antimicrobial Activity (MIC)
How it was run: as §1

CNS GC 4547 = conditions: read-out: Antimicrobial Activity (MIC)
How it was run: as §1

E. coli GC 2203 = conditions: Escherichia coli, read-out: Antimicrobial Activity (MIC)
How it was run: as §1

E. faecalis GC 842 = conditions: Enterococcus faecalis, read-out: Antimicrobial Activity (MIC)
How it was run: as §1

E. faecalis GC 4555 = conditions: Enterococcus faecalis, read-out: Antimicrobial Activity (MIC)
How it was run: as §1

E. coli GC 4559 = conditions: Escherichia coli, read-out: Antimicrobial Activity (MIC)
How it was run: as §1

M. morganii GC 4531 = conditions: Morganella morganii, read-out: Antimicrobial Activity (MIC)
How it was run: as §1

E. coli GC 3226 = conditions: Escherichia coli, read-out: Antimicrobial Activity (MIC)
How it was run: as §1

K. pneumoniae GC 4534 = conditions: Klebsiella pneumoniae, read-out: Antimicrobial Activity (MIC)
How it was run: as §1

E. cloacae GC 3783 = conditions: Enterobacter cloacae, read-out: Antimicrobial Activity (MIC)
How it was run: as §1

CNS GC 4538 = conditions: read-out: Antimicrobial Activity (MIC)
How it was run: as §1

S. aureus GC 2216 = conditions: Staphylococcus aureus, read-out: Antimicrobial Activity (MIC)
How it was run: as §1

S. marcescens GC 4077 = conditions: Serratia marcescens, read-out: Antimicrobial Activity (MIC)
How it was run: as §1

CNS GC 4537 = conditions: read-out: Antimicrobial Activity (MIC)
How it was run: as §1

P. rettgeri GC 4530 = conditions: Providencia rettgeri, read-out: Antimicrobial Activity (MIC)
How it was run: as §1

[1] = GC4532, P. aeruginosa GC 4532, Mueller-Hinton broth, 18 hours at 35° C.
[2] = GC4536, S. aureus GC 4536, Mueller-Hinton broth, 18 hours at 35° C.
[3] = GC2214, P. aeruginosa GC 2214, Mueller-Hinton broth, 18 hours at 35° C.
[4] = GC2242, E. faecalis GC 2242, Mueller-Hinton broth, 18 hours at 35° C.
[5] = GC1131, S. aureus GC 1131, Mueller-Hinton broth, 18 hours at 35° C.
[6] = CNS GC 4547, Mueller-Hinton broth, 18 hours at 35° C.
[7] = GC2203, E. coli GC 2203, Mueller-Hinton broth, 18 hours at 35° C.
[8] = GC842, E. faecalis GC 842, Mueller-Hinton broth, 18 hours at 35° C.
[9] = GC4555, E. faecalis GC 4555, Mueller-Hinton broth, 18 hours at 35° C.
[10] = GC4559, E. coli GC 4559, Mueller-Hinton broth, 18 hours at 35° C.
[11] = GC4531, M. morganii GC 4531, Mueller-Hinton broth, 18 hours at 35° C.
[12] = GC3226, E. coli GC 3226, Mueller-Hinton broth, 18 hours at 35° C.
[13] = GC4534, K. pneumoniae GC 4534, Mueller-Hinton broth, 18 hours at 35° C.
[14] = GC3783, E. cloacae GC 3783, Mueller-Hinton broth, 18 hours at 35° C.
[15] = CNS GC 4538, Mueller-Hinton broth, 18 hours at 35° C.
[16] = GC2216, S. aureus GC 2216, Mueller-Hinton broth, 18 hours at 35° C.
[17] = GC4077, S. marcescens GC 4077, Mueller-Hinton broth, 18 hours at 35° C.
[18] = CNS GC 4537, Mueller-Hinton broth, 18 hours at 35° C.
[19] = GC4530, P. rettgeri GC 4530, Mueller-Hinton broth, 18 hours at 35° C.

Structure (SMILES) | MIC (P. aeruginosa GC 4532; [1]) [µg/mL] | MIC (S. aureus GC 4536; [2]) [µg/mL] | MIC (P. aeruginosa GC 2214; [3]) [µg/mL] | MIC (E. faecalis GC 2242; [4]) [µg/mL] | MIC (S. aureus GC 1131; [5]) [µg/mL] | MIC (CNS GC 4547; [6]) [µg/mL] | MIC (E. coli GC 2203; [7]) [µg/mL] | MIC (E. faecalis GC 842; [8]) [µg/mL] | MIC (E. faecalis GC 4555; [9]) [µg/mL] | MIC (E. coli GC 4559; [10]) [µg/mL] | MIC (M. morganii GC 4531; [11]) [µg/mL] | MIC (E. coli GC 3226; [12]) [µg/mL] | MIC (K. pneumoniae GC 4534; [13]) [µg/mL] | MIC (E. cloacae GC 3783; [14]) [µg/mL] | MIC (CNS GC 4538; [15]) [µg/mL] | MIC (S. aureus GC 2216; [16]) [µg/mL] | MIC (S. marcescens GC 4077; [17]) [µg/mL] | MIC (CNS GC 4537; [18]) [µg/mL] | MIC (P. rettgeri GC 4530; [19]) [µg/mL] | MIC (E. coli GC 4560; GC4560, 18 h) [µg/mL] | other results
CCCCCCCCNC(=O)NC[C@H]1OC(O[C@H](C2C(=O)N(CCCCCCCC)C(=O)N2CCCNC(=O)C(NC(=O)C(NC(=O)NC(C(=O)O)C(C)C)C2CCNC(=N)N2)C(O)C(C)C)[C@H]2O[C@@H](n3ccc(=O)[nH]c3=O)[C@H](O)[C@@H]2O)[C@H](OC)[C@H]1O (stereo partly drawn) [Example 11, 14-[5-((R)-{(2S,3S,4R,5R)-5-[2,4-Dioxo-3,4-dihydro-1 (2H)-pyrimidinyl]-3,4-dihydroxytetrahydro-2-furanyl}{[(3R,4S,5R)-4-hydroxy-3-methoxy-5-({[(octylamino)carbonyl]amino}methyl)tetrahydro-2-furanyl]oxy}methyl)-3-octyl-2,4-dioxo-1-imidazolidinyl]-9-(1-hydroxy-2-methylpropyl)-6-(2-iminohexahydro-4-pyrimidinyl)-2-isopropyl-4,7,10-trioxo-3,5,8,11-tetraazatetradecan-1-oic Acid] | > 32 | > 32 | > 32 | > 32 | > 32 | > 32 | > 32 | > 32 | > 32 | > 32 | > 32 | > 32 | > 32 | > 32 | > 32 | > 32 | > 32 | > 32 | > 32 |  | MIC (E. coli GC 4560; GC4560, E. coli GC 4560, Mueller-Hinton broth, 18 hours at 35° C.): > 32 µg/mL
COc1ccc(NC(=O)NC[C@H]2OC(O[C@H](C3C(=O)N(c4ccc(OC)cc4)C(=O)N3CCCNC(=O)C(NC(=O)C(NC(=O)NC(C(=O)O)C(C)C)C3CCNC(=N)N3)C(O)C(C)C)[C@H]3O[C@@H](n4ccc(=O)[nH]c4=O)C(O)C3O)C(OC)C2O)cc1 (stereo partly drawn) [Example 13, 14-[5-((R)-{(2S,5R)-5-[2,4-Dioxo-3,4-dihydro-1 (2H)-pyrimidinyl]-3,4-dihydroxytetrahydro-2-furanyl}{[(5R)-4-hydroxy-3-methoxy-5-({[(4-methoxyanilino)carbonyl]amino}methyl)tetrahydro-2-furanyl]oxy}methyl)-3-(4-methoxyphenyl)-2,4-dioxo-1-imidazolidinyl]-9-(1-hydroxy-2-methylpropyl)-6-(2-iminohexahydro-4-pyrimidinyl)-2-isopropyl-4,7,10-trioxo-3,5,8,11-tetraazatetradecan-1-oic Acid] |  |  |  |  |  |  |  |  |  |  |  |  |  |  |  |  |  |  |  | > 32 | MIC (P. aeruginosa GC 4532; GC4532, 18 h): > 32 µg/mL; MIC (S. aureus GC 4536; GC4536, 18 h): > 32 µg/mL; MIC (P. aeruginosa GC 2214; GC2214, 18 h): > 32 µg/mL; MIC (E. faecalis GC 2242; GC2242, 18 h): > 32 µg/mL; MIC (S. aureus GC 1131; GC1131, 18 h): > 32 µg/mL; MIC (CNS GC 4547; 18 h): > 32 µg/mL; MIC (E. coli GC 2203; GC2203, 18 h): > 32 µg/mL; MIC (E. faecalis GC 842; GC842, 18 h): > 32 µg/mL; MIC (E. faecalis GC 4555; GC4555, 18 h): > 32 µg/mL; MIC (E. coli GC 4559; GC4559, 18 h): > 32 µg/mL; MIC (M. morganii GC 4531; GC4531, 18 h): > 32 µg/mL; MIC (E. coli GC 3226; GC3226, 18 h): > 32 µg/mL; MIC (K. pneumoniae GC 4534; GC4534, 18 h): > 32 µg/mL; MIC (E. cloacae GC 3783; GC3783, 18 h): > 32 µg/mL; MIC (CNS GC 4538; 18 h): > 32 µg/mL; MIC (S. aureus GC 2216; GC2216, 18 h): > 32 µg/mL; MIC (S. marcescens GC 4077; GC4077, 18 h): > 32 µg/mL; MIC (CNS GC 4537; 18 h): > 32 µg/mL; MIC (P. rettgeri GC 4530; GC4530, 18 h): > 32 µg/mL
CCCCCN1C(=O)C([C@@H](OC2O[C@H](CN)[C@H](O)[C@H]2OC)[C@H]2O[C@@H](n3ccc(=O)[nH]c3=O)[C@H](O)[C@@H]2O)N(CCCNC(=O)C(NC(=O)C(NC(=O)NC(C(=O)O)C(C)C)C2CCNC(=N)N2)C(O)C(C)C)C1=O (stereo partly drawn) [Example 2, 14-[5-((R)-{[(3R,4S,5R)-5-(Aminomethyl)-4-hydroxy-3-methoxytetrahydro-2furanyl]oxy}{(2S,3S,4R,5R)-5-[2,4-dioxo-3,4-dihydro-1 (2H)-pyrimidinyl]-3,4-dihydroxytetrahydro-2-furanyl}methyl)-2,4-dioxo-3-pentyl-1-imidazolidinyl]-9-(1-hydroxy-2-methylpropyl)-6-(2-iminohexahydro-4-pyrimidinyl)-2-isopropyl-4,7,10-trioxo-3,5,8,11-tetraazatetradecan-1-oic acid] | > 32 | > 32 | > 32 | > 32 | > 32 | > 32 | > 32 | > 32 | > 32 | > 32 | > 32 | > 32 | > 32 | > 32 | > 32 | > 32 | > 32 | > 32 | > 32 | 32 (≈ 30.7 µM) | 
CCCCCNC[C@H]1OC(O[C@H](C(C(=O)O)N(CCCCC)CCCNC(=O)C(NC(=O)C(NC(=O)NC(C(=O)O)C(C)C)C2CCNC(=N)N2)C(O)C(C)C)[C@H]2O[C@@H](n3ccc(=O)[nH]c3=O)[C@H](O)[C@@H]2O)[C@H](OC)[C@H]1O (stereo partly drawn) [Example 17, 16-[(R)-{(2S,3S,4R,5R)-5-[2,4-Dioxo-3,4-dihydro-1 (2H)-pyrimidinyl]-3,4-dihydroxytetrahydro-2-furanyl}({(3R,4S,5R)-4-hydroxy-3-methoxy-5-[(pentylamino)methyl]tetrahydro-2-furanyl}oxy)methyl]-9-(1-hydroxy-2-methylpropyl)-6-(2-iminohexahydro-4-pyrimidinyl)-2-isopropyl-4,7,10-trioxo-15-pentyl-3,5,8,11,15-pentaazaheptadecane-1,17-dioic Acid] | > 32 | > 32 | > 32 | 32 (≈ 29.5 µM) | > 32 | 32 (≈ 29.5 µM) | > 32 | > 32 | > 32 | > 32 | > 32 | > 32 | > 32 | > 32 | > 32 | > 32 | > 32 | > 32 | > 32 | 32 (≈ 29.5 µM) | 
